In ChEMBL document CHEMBL5380814, “Targeting Receptor-Interacting Protein Kinase 1 by Novel Benzothiazole Derivatives: Treatment of Acute Lung Injury through the Necroptosis Pathway” (J Med Chem, 2023):
Active and inactive are the calls of the source. The rule behind the calls is not given here.

What was measured:
[1] = target: Receptor-interacting serine/threonine-protein kinase 3 (Homo sapiens, UniProt Q9Y572); assay: Binding affinity to human wildtype full length RIPK3 (M1 to Q307 residues) expressed in bacterial expression system assessed as dissociation constant by kinome scan kd select based qPCR analysis
[2] = test system: Mus musculus; assay: In vivo anti-inflammatory activity in NNK induced induced C57BL/6J ALI mouse model assessed as decrease in bronchoalveolar lavage fluid (BALF) TNF-alpha level pretreated at 25 to 100 mg/kg, ip for 1 hr followed by NNK administration; assay type: functional, organism-based; settings: dose 25-100 mg/kg
[3] = test system: Mus musculus; assay: In vivo anti-inflammatory activity in NNK induced induced C57BL/6J ALI mouse model assessed as lung injury score pretreated at 25 mg/kg, ip for 1 hr followed by NNK administration relative to disease model (reference value: 5.7 +/- 0.5); assay type: functional
[4] = test system: U-937; assay: Anti-necroptotic activity in human U-937 cells assessed as protection against human TNFalpha/Smac mimetic/Z-VAD-FMK induced necroptosis preincubated with compound upto 50 nM for 16 to 24 hrs followed by TSZ stimulation for 12 hrs measured by cell-titre glo luminescent cell viability assay; assay type: functional, cell-based; settings: time 28-36 hrs
[5] = target: T1, Receptor-interacting serine/threonine-protein kinase 1 (Homo sapiens) (UniProt Q13546); assay: Inhibition of RIPK1 phosphorylation in TSZ-induced human HT-29 cells assessed as blocking of TSZ-induced necrosome formation at 0.5 uM pretreated with compound for 6 hrs followed by TSZ stimulation for 6 hrs measured by Western analysis; assay type: cell-based; settings: time 12.0 hrs
T1 sequence (whole entry): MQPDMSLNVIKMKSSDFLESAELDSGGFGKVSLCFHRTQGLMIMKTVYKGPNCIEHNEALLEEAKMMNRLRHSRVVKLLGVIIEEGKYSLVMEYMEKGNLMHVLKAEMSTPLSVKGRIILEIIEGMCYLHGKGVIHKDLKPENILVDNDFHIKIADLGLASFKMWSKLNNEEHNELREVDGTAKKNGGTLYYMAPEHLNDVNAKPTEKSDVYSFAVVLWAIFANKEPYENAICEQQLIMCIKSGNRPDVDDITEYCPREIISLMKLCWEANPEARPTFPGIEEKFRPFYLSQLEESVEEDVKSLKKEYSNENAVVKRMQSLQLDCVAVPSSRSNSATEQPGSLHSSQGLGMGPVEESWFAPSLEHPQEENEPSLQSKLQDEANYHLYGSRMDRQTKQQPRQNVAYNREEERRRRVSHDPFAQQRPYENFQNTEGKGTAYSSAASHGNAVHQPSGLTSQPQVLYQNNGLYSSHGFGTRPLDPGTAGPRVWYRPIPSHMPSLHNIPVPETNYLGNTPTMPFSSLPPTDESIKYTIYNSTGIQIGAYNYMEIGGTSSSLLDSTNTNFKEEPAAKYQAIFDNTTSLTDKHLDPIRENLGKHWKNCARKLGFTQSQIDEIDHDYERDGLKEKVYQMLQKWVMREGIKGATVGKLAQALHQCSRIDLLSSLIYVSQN

[6] = test system: Mus musculus; assay: In vivo anti-inflammatory activity in NNK induced induced C57BL/6J ALI mouse model assessed as intact alveolar structure in lung pretreated at 25 to 100 mg/kg, ip for 1 hr followed by NNK administration by HE staining analysis; assay type: functional, organism-based; settings: dose 25-100 mg/kg
[7] = test system: Mus musculus; assay: In vivo anti-inflammatory activity in NNK induced induced C57BL/6J ALI mouse model assessed as decrease in lung TNF-alpha mRNA level pretreated at 25 to 100 mg/kg, ip for 1 hr followed by NNK administration; assay type: functional, organism-based; settings: dose 25-100 mg/kg
[8] = test system: Mus musculus; assay: In vivo anti-necrotoptic activity in NNK induced induced C57BL/6J ALI mouse model assessed as reduction in RIPK1 phosphorylation pretreated at 25 to 100 mg/kg, ip for 1 hr followed by NNK administration; assay type: functional, organism-based; settings: dose 25-100 mg/kg
[9] = test system: HT-29; assay: Anti-necroptotic activity in human HT-29 cells assessed as inhibition of human TNFalpha/Smac mimetic/Z-VAD-FMK induced necroptosis preincubated with compound upto 50 nM for 16 to 24 hrs followed by TSZ stimulation for 12 hrs measured by cell-titre glo luminescent cell viability assay; assay type: functional, cell-based; settings: time 28-36 hrs

Sequence of Receptor-interacting serine/threonine-protein kinase 3 (Q9Y572 whole entry, the tested form may be a part): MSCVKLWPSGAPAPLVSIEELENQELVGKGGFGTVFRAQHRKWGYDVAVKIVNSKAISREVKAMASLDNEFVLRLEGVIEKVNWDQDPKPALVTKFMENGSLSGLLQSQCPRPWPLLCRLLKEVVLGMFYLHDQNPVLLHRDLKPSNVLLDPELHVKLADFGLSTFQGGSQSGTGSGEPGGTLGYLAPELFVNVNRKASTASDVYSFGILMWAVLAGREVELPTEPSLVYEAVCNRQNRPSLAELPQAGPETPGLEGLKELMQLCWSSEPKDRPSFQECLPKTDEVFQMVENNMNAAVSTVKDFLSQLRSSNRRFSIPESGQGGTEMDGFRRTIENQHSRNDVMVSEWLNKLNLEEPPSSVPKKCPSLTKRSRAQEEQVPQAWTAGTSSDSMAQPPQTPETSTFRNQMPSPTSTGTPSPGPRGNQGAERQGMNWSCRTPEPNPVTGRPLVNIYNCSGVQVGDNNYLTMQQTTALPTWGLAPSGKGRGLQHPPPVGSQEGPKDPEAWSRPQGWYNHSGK

CCS(=O)(=O)NC1CCC(C(=O)Nc2nc3cc(F)c(Oc4ccc(F)c(NC(=O)Cc5cccc(C(F)(F)F)c5)c4)cc3s2)CC1 (centres undefined)
Kd [1]: > 10 µM | Activity [2]: Active | Activity [3]: 4.3 | Activity [4]: inactive | inhibition [5]: Active | Activity [6]: Active | Activity [7]: Active | Activity [8]: Active | Activity [9]: Dose-Dependent Effect
